The EC50 is the midpoint of the concentration-response curve. Higher therefore signals a less potent agent.

We go through 34 molecules from patent US8618138B2, “Indole amide derivatives and related compounds for use in the treatment of neurodegenerative diseases” (Katholieke Universiteit Leuven, K.U. Leuven R&D, priority 2009, dated 2013).

In the test the test system is M17-TAU P301L cells. The test is described as follows: TAU cytotoxicity assay: LDH leakage of retinoic acid incubated M17-TAU P301L cells. It counts as cell-based, human. The following applies: Homo sapiens, 168 h, reduction of LDH activity of retinoic acid incubated M17-TAU P301L cells, 7 days. The source says:
A TAU expression plasmid was constructed by sub-cloning the cDNA of human TAU-P301 L (encoding for TAU with proline 301 substituted by a leucine residue) into mammalian expression vector pcDNA3.1 resulting in plasmid pcDNA3.1-TAU P301L. Plasmids pcDNA3.1 and pcDNA3.1-TAU P301L were transfected to human neuroblastoma cells ([…]; ATCC No. CRL-2267) and independent clonal lines with the plasmids stably integrated into the genome were selected. […] Expression of the TAU P301L genes in the cell lines was confirmed by Western analysis.
In degenerated or dead cells lactate dehydrogenase (LDH) is leaked out of the cells into the extracellular environment due to a loss of plasma-membrane integrity. This principle was used to determine cytotoxicity by quantifying the level of leaked LDH into the growth medium.
The detailed method for determining TAU cytotoxicity was as follows: From appropriate precultures of M17-3.1 and M17-TAU(P301L) cells were seeded at 2500 cells/cm2 in Optimem Reduced Serum without phenol red (Gibco, Cat. 31985-047) supplemented with 1% fetal calf serum, 1 mM sodium pyruvate, 1× non-essential amino acids, 500 μg/ml G418 0.5× antibiotic/antimycotic. After 3 h of incubation at 37° C./5% CO2 1 volume of Optimem Reduced Serum (same as described above; except without fetal calf serum) supplemented with 2.5 μM retinoic acid (RA) was added. The cells were further incubated for 7 days. Subsequently, LDH activity was determined using Promega Cytotox 96 Non-Radioactive cytotoxicity assay, (Cat. G1780) according the supplier's instructions.
The M17-TAU P301L cell line made it possible to assess the ability of novel compounds to counteract TAU cytotoxicity. […] These measurements were used to calculate EC50 values of table 2.
Exemplary compounds of the present invention are shown in table 2, with their chemical name and their EC50 value (expressed in nM) as determined from example 196 in the Tau-induced toxicity experiment.
`O=C(NCCc1c[nH]c2ccc(Cl)cc12)c1noc(Cc2ccccc2)n1` [Example D168, 5-benzyl-N-(2-(5-chloro-1H-indol-3-yl)ethyl)-1,2,4-oxadiazole-3-carboxamide] gave a concentration for a half-maximal effect (EC50) of 77 nM.

`O=C(NCCc1c[nH]c2ccc(Cl)cc12)c1cc(C2CC2)on1` [Example D6, N-(2-(5-chloro-1H-indol-3-yl)ethyl)-5-cyclopropylisoxazole-3-carboxamide]: the half-maximal effective concentration (EC50) was 13 nM.

Consider `O=C(NCCc1c[nH]c2c(F)cc(Cl)cc12)c1cc(Cc2cc(F)ccc2F)on1` [Example D141, N-(2-(5-chloro-7-fluoro-1H-indol-3-yl)ethyl)-5-(2,5-difluorobenzyl)isoxazole-3-carboxamide], for which the EC50 was 233 nM.

`O=C(NCCc1c[nH]c2ccc(Cl)cc12)c1cc(-c2ccc(Cl)cc2)oc1C(F)(F)F` [Example D68, N-(2-(5-chloro-1H-indol-3-yl)ethyl)-5-(4-chlorophenyl)-2-(trifluoromethyl)furan-3-carboxamide]: the EC50 stood at 337 nM.

Take `CC(=O)c1ccc(N2CCC(C(=O)NCCc3c[nH]c4ccc(Cl)cc34)C2=O)cc1` (stereo not shown) [Example D134, 1-(4-acetylphenyl)-N-(2-(5-chloro-1H-indol-3-yl)ethyl)-2-oxopyrrolidine-3-carboxamide]: the EC50 was determined as 86 nM.

Molecule `Cc1ccc(N2CCC(C(=O)NCCc3c[nH]c4ccc(Cl)cc34)C2=O)cc1` (stereo not shown) [Example D133, N-(2-(5-chloro-1H-indol-3-yl)ethyl)-2-oxo-1-p-tolylpyrrolidine-3-carboxamide] showed an EC50 of 46 nM.

For the molecule `Cc1ccc(Nc2nc(C(=O)NCCc3c[nH]c4ccccc34)cs2)cc1` [Example D110, N-(2-(1H-indol-3-yl)ethyl)-2-(p-tolylamino)thiazole-4-carboxamide], a half-maximal effect (EC50) was put at 274 nM.

In turn, `CCCc1cc(-c2nc(C)c(C(=O)NCCc3c[nH]c4ccccc34)s2)ccn1` [Example D33, N-(2-(1H-indol-3-yl)ethyl)-4-methyl-2-(2-propylpyridin-4-yl)thiazole-5-carboxamide] showed a half-maximal effective concentration (EC50) of 56 nM.

Turning to `O=C(NCCc1c[nH]c2ccc(Cl)cc12)c1cc(Cc2ccsc2)on1` [Example D25, N-(2-(5-chloro-1H-indol-3-yl)ethyl)-5-(thiophen-3-ylmethyl)isoxazole-3-carboxamide], the EC50 turned out to be 35 nM.

Turning to `O=C(NCCc1c[nH]c2ccc(Cl)cc12)N1CCN(Cc2ccccc2)C1` [Example D69, 3-benzyl-N-(2-(5-chloro-1H-indol-3-yl)ethyl)imidazolidine-1-carboxamide], the midpoint of the response, the EC50, lay at 357 nM.

`O=C(NCCc1c[nH]c2ccc(Cl)cc12)c1cc(CO)on1` [Example D121, N-(2-(5-chloro-1H-indol-3-yl)ethyl)-5-(hydroxymethyl)isoxazole-3-carboxamide] registered an EC50 of 105 nM.

On to `O=C(NCCCc1c[nH]c2ccc(Cl)cc12)c1cc(Cc2cccc(F)c2)on1` [Example D35, N-(3-(5-chloro-1H-indol-3-yl)propyl)-5-(3-fluorobenzyl)isoxazole-3-carboxamide], for which the EC50 was determined as 60 nM.

Molecule `O=C(NCCc1c[nH]c2ccc(Cl)cc12)c1noc(Cc2cccs2)n1` [Example D180, N-(2-(5-chloro-1H-indol-3-yl)ethyl)-5-(thiophen-2-ylmethyl)-1,2,4-oxadiazole-3-carboxamide] yielded an EC50 of 103 nM.

`O=C(NCCc1c[nH]c2ccc(Cl)cc12)C1CCN(C2CC2)C1=O` (stereo not shown) [Example D149, N-(2-(5-chloro-1H-indol-3-yl)ethyl)-1-cyclopropyl-2-oxopyrrolidine-3-carboxamide] displayed a concentration for a half-maximal effect (EC50) of 2090 nM.

As for `COc1ccc(N2CCC(C(=O)NCCc3c[nH]c4ccc(Cl)cc34)C2=O)cc1F` (stereo not shown) [Example D147, N-(2-(5-chloro-1H-indol-3-yl)ethyl)-1-(3-fluoro-4-methoxyphenyl)-2-oxopyrrolidine-3-carboxamide], the EC50 worked out at 379 nM.

Consider `O=C(NCCc1c[nH]c2ccc(Cl)cc12)c1noc(Cc2ccc(OC(F)(F)F)cc2)n1` [Example D185, N-(2-(5-chloro-1H-indol-3-yl)ethyl)-5-(4-(trifluoromethoxy)benzyl)-1,2,4-oxadiazole-3-carboxamide], for which a half-maximal effect (EC50) was put at 42 nM.

On to `O=C(NCCc1c[nH]c2ccc(Cl)cc12)c1noc(Cc2c(F)cccc2F)n1` [Example D188, N-(2-(5-chloro-1H-indol-3-yl)ethyl)-5-(2,6-difluorobenzyl)-1,2,4-oxadiazole-3-carboxamide], for which the EC50 was found to be 41 nM.

The molecule `O=C(NCCc1c[nH]c2ccc(C(F)(F)F)cc12)c1cc(Cc2cc(F)ccc2F)on1` [Example D135, 5-(2,5-difluorobenzyl)-N-(2-(5-(trifluoromethyl)-1H-indol-3-yl)ethyl)isoxazole-3-carboxamide] returned an EC50 of 144 nM.

As to `Cc1ccc(N2CCC(C(=O)NCCc3c[nH]c4ccc(Cl)cc34)C2=O)cc1C` (stereo not shown) [Example D143, N-(2-(5-chloro-1H-indol-3-yl)ethyl)-1-(3,4-dimethylphenyl)-2-oxopyrrolidine-3-carboxamide], the midpoint of the response, the EC50, lay at 1020 nM.

`O=C(NCCc1c[nH]c2ccc(Cl)cc12)C1=NC(c2ccccc2)CO1` (stereo not shown) [Example D83, N-(2-(5-chloro-1H-indol-3-yl)ethyl)-4-phenyl-4,5-dihydrooxazole-2-carboxamide]: the EC50 amounted to 979 nM.

Consider `O=C(NCCc1c[nH]c2ccc(Cl)cc12)c1noc(Cc2cc(F)cc(F)c2)n1` [Example D182, N-(2-(5-chloro-1H-indol-3-yl)ethyl)-5-(3,5-difluorobenzyl)-1,2,4-oxadiazole-3-carboxamide], for which the EC50 stood at 11 nM.

In turn, `O=C(NCCc1c[nH]c2ccc(Cl)cc12)C1CCN(c2ccc(F)c(F)c2)C1=O` (stereo not shown) [Example D148, N-(2-(5-chloro-1H-indol-3-yl)ethyl)-1-(3,4-difluorophenyl)-2-oxopyrrolidine-3-carboxamide] yielded an EC50 of 691 nM.

The molecule `Cc1nc(-c2cnccn2)sc1C(=O)NCCc1c[nH]c2ccc(Cl)cc12` [Example D73, N-(2-(5-chloro-1H-indol-3-yl)ethyl)-4-methyl-2-(pyrazin-2-yl)thiazole-5-carboxamide] showed an EC50 of 515 nM.

In turn, `Cc1cccc(Cc2cc(C(=O)NCCc3c[nH]c4ccc(Cl)cc34)no2)c1` [Example D20, N-(2-(5-chloro-1H-indol-3-yl)ethyl)-5-(3-methylbenzyl)isoxazole-3-carboxamide] yielded an EC50 of 23 nM.

The molecule `Cn1ccc2cc(N3CCC(C(=O)NCCc4c[nH]c5ccc(Cl)cc45)C3=O)ccc21` (stereo not shown) [Example D167, N-(2-(5-chloro-1H-indol-3-yl)ethyl)-1-(1-methyl-1H-indol-5-yl)-2-oxopyrrolidine-3-carboxamide] gave an EC50 of 506 nM.

Regarding `Cn1ccc(C(=O)NCCc2c[nH]c3ccc(Cl)cc23)n1` [Example D118, N-(2-(5-chloro-1H-indol-3-yl)ethyl)-1-methyl-1H-pyrazole-3-carboxamide], the EC50 was determined as 332 nM.

Regarding `O=C(NCCc1c[nH]c2ccc(Cl)cc12)c1cc(-c2cccc3c2OCCO3)on1` [Example D38, N-(2-(5-chloro-1H-indol-3-yl)ethyl)-5-(2,3-dihydrobenzo[b][1,4]dioxin-5-yl)isoxazole-3-carboxamide], the concentration for a half-maximal effect (EC50) is 80 nM.

`O=C(NCCc1c[nH]c2ccc(Cl)cc12)c1noc(Cc2ccc(F)cc2)n1` [Example D171, N-(2-(5-chloro-1H-indol-3-yl)ethyl)-5-(4-fluorobenzyl)-1,2,4-oxadiazole-3-carboxamide] came in with an EC50 of 32 nM.

`O=C(NCCc1c[nH]c2ccc(Cl)cc12)C1CCN(c2ccc(Cl)c(F)c2)C1=O` (stereo not shown) [Example D142, N-(2-(5-chloro-1H-indol-3-yl)ethyl)-1-(4-chloro-3-fluorophenyl)-2-oxopyrrolidine-3-carboxamide] returned an EC50 of 561 nM.

As to `Cc1cc2c(CCNC(=O)c3cc(Cc4cc(F)ccc4F)on3)c[nH]c2cc1Cl` [Example D136, N-(2-(6-chloro-5-methyl-1H-indol-3-yl)ethyl)-5-(2,5-difluorobenzyl)isoxazole-3-carboxamide], the 50% effective concentration (EC50) came out at 741 nM.

For the molecule `Cc1ccc(N2CCC(C(=O)NCCc3c[nH]c4ccc(Cl)cc34)C2)cc1` (stereo not shown) [Example D165, N-(2-(5-chloro-1H-indol-3-yl)ethyl)-1-p-tolylpyrrolidine-3-carboxamide], the EC50 was 188 nM.

The molecule `COc1ccc(N2CCC(C(=O)NCCc3c[nH]c4ccc(Cl)cc34)C2=O)cc1` (stereo not shown) [Example D70, N-(2-(5-chloro-1H-indol-3-yl)ethyl)-1-(4-methoxyphenyl)-2-oxopyrrolidine-3-carboxamide] came in with an EC50 of 408 nM.

Molecule `O=C(NCCc1c[nH]c2ccc(Cl)cc12)N1CCC(c2ccccc2)C1` (stereo not shown) [Example D63, N-(2-(5-chloro-1H-indol-3-yl)ethyl)-3-phenylpyrrolidine-1-carboxamide] gave an EC50 of 304 nM.

With `Cc1nc(NCCc2ccccc2)sc1C(=O)NCCc1c[nH]c2ccccc12` [Example D39, N-(2-(1H-indol-3-yl)ethyl)-4-methyl-2-(phenethylamino)thiazole-5-carboxamide], the EC50 is 87 nM.
